Measured values as given in patent publication US20070148710A1, “Cpt resistant cell line” (priority 2003, published 2007).
Converted amounts (≈) assume the structure as drawn. Read-outs that look alike come from different tables or passages of the source.

Columns and labels:
[1] = system: SW948CPTL cells; test: clonogenic assay, CPT-11 IC50; assay type: cell-based; details: Homo sapiens, read-out: CPT-11 IC50
Description: 8. […] IC50 was determined using a clonogenic assay.

[2] = system: SW948CPTH cells; test: clonogenic assay, CPT-11 IC50; assay type: cell-based; details: Homo sapiens
Description: 7. […] IC50 was determined using a clonogenic assay.
Ten days later, the surviving fraction of the SW948 and SW948CPTH cells was determined.
The cells were then washed, fresh medium added, and plated for colony formation.

[3] = system: SW948CPTH cells; test: intracellular accumulation of CPT-11 (HPLC), effect of verapamil; assay type: cell-based, human; details: SW948CPTH vs parent SW948; CPT-11 160 μM, 2 hours, 37° C. (FIG. 6A)
Text: 10. […] Cells were washed, trypsinized, and counted. Cell pellets were lysed with water and sonicated. […] Results were generated from three independent experiments. […] Data are expressed as mean±SD. […] Data are the mean±SD of two experiments done in triplicate.
Additionally, multidrug resistance can be evaluated by measuring the expression level of p-glycoprotein (p-gp) (Juliano et al Biochim Biophys Acta 11:152-162, 1976) and breast cancer resistant protein (BCRP) (Doyle et al Proc Natl Acad Sci U S A 95:15665-15670, 1998) in SW948 and the resistant SW948 cell lines (SW948CPTH and SW948CPTL). It is understood that the disclosed methods can also be used with other cell lines including other colon cancer cell lines. For example, the disclosed methods can be used with LS174T, WiDr, HT-29, SW403, DLD-1, SW480, SNU-C1, Caco-2, and COLO 205 cell lines.

SMILES: CCc1c2c(nc3ccc(OC(=O)N4CCC(N5CCCCC5)CC4)cc13)-c1cc3c(c(=O)n1C2)COC(=O)[C@]3(O)CC [CPT-11, Irinotecan]
- IC50 ([1]; 168 h): 4.8 µg/mL (≈ 8.18 µM)
- IC50 ([1]; 600 h): 12.9 µg/mL (≈ 22 µM)
- IC50 [1]: 16 µg/mL (≈ 27.3 µM)
- IC50 ([2]; 192 h, read-out: CPT-11 IC50, SW948CPTH exposed to 80 μg/ml CPT-11, 8 days when assayed, tested in presence of CPT-11): 79 µg/mL
- IC50 ([2]; 336 h, read-out: CPT-11 IC50, SW948CPTH exposed to 8 μg/ml CPT-11, 14 days when assayed, tested in presence of CPT-11): 18.2 µg/mL
- IC50 ([2]; 480 h, read-out: CPT-11 IC50, SW948CPTH exposed to 8 μg/ml CPT-11, 20 days when assayed, tested in presence of CPT-11): 15.6 µg/mL
- IC50 ([2]; 480 h, read-out: CPT-11 IC50, SW948CPTH exposed to 30 μg/ml CPT-11, 20 days when assayed, tested in presence of CPT-11): 18 µg/mL
- IC50 ([2]; 552 h, read-out: CPT-11 IC50, SW948CPTH exposed to 10 μg/ml CPT-11, 23 days when assayed, tested in presence of CPT-11): 21.3 µg/mL
- IC50 ([2]; 600 h, read-out: CPT-11 IC50, SW948CPTH exposed to 20 μg/ml CPT-11, 25 days when assayed, tested in presence of CPT-11): 23.6 µg/mL
- IC50 ([2]; […], read-out: CPT-11 IC50, SW948CPTH exposed to 30 μg/ml CPT-11, 19 days when assayed, tested in presence of CPT-11): 21.3 µg/mL
- IC50 ([2]; read-out: CPT-11 IC50, SW948CPTH exposed to 20 μg/ml CPT-11, 30 days when assayed, tested in presence of CPT-11): 18.2 µg/mL
- IC50 ([2]; read-out: CPT-11 IC50, SW948CPTH exposed to 20 μg/ml CPT-11, 51 days when assayed, tested in presence of CPT-11): 24 µg/mL
- IC50 ([2]; read-out: CPT-11 IC50, SW948CPTH exposed to 20 μg/ml CPT-11, 60 days, CPT-11 withdrawn for 33 days prior to IC50 determination): 19 µg/mL (≈ 32.4 µM)
- IC50 ([2]; read-out: CPT-11 IC50, SW948CPTH exposed to 20 μg/ml CPT-11, 65 days when assayed, tested in presence of CPT-11): 34 µg/mL
- IC50 ([2]; read-out: CPT-11 IC50, SW948CPTH exposed to 30 μg/ml CPT-11, 47 days when assayed, tested in presence of CPT-11): 19 µg/mL
- IC50 ([2]; read-out: CPT-11 IC50, SW948CPTH exposed to 40 μg/ml CPT-11, 30 days when assayed, tested in presence of CPT-11): 55 µg/mL
- IC50 ([2]; read-out: CPT-11 IC50 Dose, SW948CPTH treated 20 μg/ml CPT-11 62 days, 5 days after removal of CPT-11): 25 µg/mL (≈ 42.6 µM)
- IC50 ([2]; read-out: CPT-11 IC50 Dose, SW948CPTH treated 20 μg/ml CPT-11 62 days, 21 days after removal of CPT-11): 18.9 µg/mL (≈ 32.2 µM)
- IC50 ([2]; read-out: CPT-11 IC50 Dose, SW948CPTH treated 20 μg/ml CPT-11 62 days, 40 days after removal of CPT-11): 19 µg/mL (≈ 32.4 µM)
- IC50 ([2]; read-out: CPT-11 IC50 Dose, SW948CPTH treated 20 μg/ml CPT-11 62 days, 45 days after removal of CPT-11): 19.2 µg/mL (≈ 32.7 µM)
- IC50 ([2]; read-out: CPT-11 IC50 Dose, SW948CPTH treated 20 μg/ml CPT-11 62 days, 68 days after removal of CPT-11): 11.4 µg/mL (≈ 19.4 µM)
- IC50 ([2]; read-out: CPT-11 IC50 Dose, SW948CPTH treated 20 μg/ml CPT-11 62 days, 89 days after removal of CPT-11): 13.4 µg/mL (≈ 22.8 µM)
- intracellular accumulation of CPT-11 [3]: lower than the parent cell line SW948
